Measured values taken from patent US20210221774A1, “TREATMENT OF POST-TRAUMATIC SYNDROME DISORDER” (Aché Laboratórios Farmacêuticos S.A, priority 2017, published 2021).

Tested on: c-fos expression in key brain regions involved in stress response
Assay: Single Prolonged Stress (SPS) model, count of c-fos positive neurons in brain regions
Type: in vivo
Details: mice, IA1-29 30 mg/kg p.o. given before SPS, locus ceruleus, amygdala, hypothalamus, bed nuclei stria terminalis (FIG. 1)
Experimental: The quinazolinone of the invention was named IA1-29 and was tested in an in vivo model that mimics the activation that occurs in the brain after a prolonged stress stimulus.
The effects of the administration of IA1-29 at 30 mg/kg p.o. in brain activation were assessed in mice subjected to the Single Prolonged Stress (SPS) model. The SPS protocol is a well established model of PTSD that combines multiple stressors (physical restraint, forced swim, predator scent and ether anesthesia (Borghans & Homberg, 2015; Yamamoto et al., 2009)). The activation of specific brain regions was determined by counting the number of neurons expressing the c-fos protein, an immediate early gene product that can be used as a marker of cell activation in individual neurons. […] The count of c-fos positive neurons in some of these regions can be visualized in FIG. 1. The experiment comprised three different groups (n=10 per group): mice not subjected to the SPS protocol (Sham), mice subjected to the SPS model (SPS) and animals submitted to the SPS protocol but pre-treated with IA1-29 at 30 mg/kg (IA1-29+SPS). The brain regions exemplified in FIG. 1 are locus ceruleus (FIG. 1A), amygdala (FIG. 1B), hypothalamus (FIG. 1C) and bed nuclei stria terminalis (FIG. 1D). […]

COc1ccccc1N1CCN(CCn2cnc3ccccc3c2=O)CC1 [IA1-29, 3-(2-(4-(2-methoxyphenyl)piperazine-1-yl)ethyl) quinazoline-4(3H)-one]
SPS-induced c-fos expression in key brain regions involved in stress response (count of c-fos positive neurons): suppressed
